Activity calls are given as the source filed them. No rule for the calls is given here.
Tested on: rodent lifetime carcinogenesis bioassay, tumor incidence TD50
Assay: carcinogenic potency in animals, long-term in vivo studies, CPDB compilation (AID 1745844)

C=CC
inactive: carcinogen call (mouse, strain B6C3F1, females, inhaled, site: any site (literature study), lesion: several types, types named in the paper, dosed 103 weeks, study length 105 weeks) negative | carcinogen call (mouse, strain B6C3F1, males, inhaled, site: any site (literature study), lesion: several types, types named in the paper, dosed 103 weeks, study length 105 weeks) negative | TD50 (mouse, strain Swiss, females, inhaled, site: any site (literature study), lesion: malignant tumor, dosed 78 weeks, study length 104 weeks) 20100 mg/kg/day | TD50 (mouse, strain Swiss, females, inhaled, site: any site (literature study), lesion: several types, types named in the paper, dosed 78 weeks, study length 104 weeks) 10100 mg/kg/day | TD50 (mouse, strain Swiss, females, inhaled, site: liver, lesion: hepatoma, dosed 78 weeks, study length 104 weeks) 286000 mg/kg/day | TD50 (mouse, strain Swiss, females, inhaled, site: lung, lesion: adenocarcinoma, dosed 78 weeks, study length 104 weeks) 1.2e+06 mg/kg/day | TD50 (mouse, strain Swiss, females, inhaled, site: lung, lesion: adenoma, dosed 78 weeks, study length 104 weeks) 19800 mg/kg/day | carcinogen call (mouse, strain Swiss, males, inhaled, site: any site (literature study), lesion: malignant tumor, dosed 78 weeks, study length 104 weeks) negative | carcinogen call (mouse, strain Swiss, males, inhaled, site: any site (literature study), lesion: several types, types named in the paper, dosed 78 weeks, study length 104 weeks) negative | carcinogen call (mouse, strain Swiss, males, inhaled, site: liver, lesion: hepatoma, dosed 78 weeks, study length 104 weeks) negative | carcinogen call (mouse, strain Swiss, males, inhaled, site: lung, lesion: adenocarcinoma, dosed 78 weeks, study length 104 weeks) negative | carcinogen call (mouse, strain Swiss, males, inhaled, site: lung, lesion: adenoma, dosed 78 weeks, study length 104 weeks) negative | carcinogen call (rat, strain Fischer 344, females, inhaled, site: any site (literature study), lesion: several types, types named in the paper, dosed 103 weeks, study length 104 weeks) negative | TD50 (rat, strain Fischer 344, males, inhaled, site: any site (literature study), lesion: several types, types named in the paper, dosed 103 weeks, study length 104 weeks) 15500 mg/kg/day
20500 mg/kg/day: TD50 (rat, strain Fischer 344, females, inhaled, site: liver, lesion: hepatocellular adenoma + hepatocellular carcinoma + neoplastic nodule, dosed 103 weeks, study length 104 weeks)
4610 mg/kg/day: TD50 (rat, strain Fischer 344, males, inhaled, site: liver, lesion: hepatocellular adenoma + hepatocellular carcinoma + neoplastic nodule, dosed 103 weeks, study length 104 weeks)

NNc1nc(-c2ccccc2)cs1
inactive: TD50 (rat, strain Sprague-Dawley, females, in feed, site: any site (literature study), lesion: several types, types named in the paper, dosed 46 weeks, study length 66 weeks) 311 mg/kg/day

CCN(CC)c1ccc(N=Nc2cc[n+]([O-])cc2)cc1
active: carcinogen call (rat, strain Sprague-Dawley, males, in feed, site: liver, lesion: one or several types, types not named, dosed 52 weeks, study length 52 weeks) positive

O=C(OC[C@@H]1O[C@H](OC(=O)c2cc(O)c(O)c(OC(=O)c3cc(O)c(O)c(O)c3)c2)[C@@H](OC(=O)c2cc(O)c(O)c(OC(=O)c3cc(O)c(O)c(O)c3)c2)[C@H](OC(=O)c2cc(O)c(O)c(OC(=O)c3cc(O)c(O)c(O)c3)c2)[C@H]1OC(=O)c1cc(O)c(O)c(OC(=O)c2cc(O)c(O)c(O)c2)c1)c1cc(O)c(O)c(OC(=O)c2cc(O)c(O)c(O)c2)c1
inactive: TD50 (rat, strain F344/DuCrj, females, in drinking water, site: any site (literature study), lesion: several types, types named in the paper, dosed 104 weeks, study length 114 weeks) 620 mg/kg/day | TD50 (rat, strain F344/DuCrj, females, in drinking water, site: liver, lesion: hepatocellular adenoma, dosed 104 weeks, study length 114 weeks) 16000 mg/kg/day | carcinogen call (rat, strain F344/DuCrj, males, in drinking water, site: any site (literature study), lesion: several types, types named in the paper, dosed 104 weeks, study length 114 weeks) negative | carcinogen call (rat, strain F344/DuCrj, males, in drinking water, site: liver, lesion: hepatocellular adenoma, dosed 104 weeks, study length 114 weeks) negative

Nc1ccc(-c2ccc(N)c(Cl)c2)cc1Cl
inactive: carcinogen call (rat, strain Charles River CD (Sprague-Dawley), females, in feed, site: liver, lesion: one or several types, types not named, dosed 69 weeks, study length 69 weeks) negative | carcinogen call (rat, strain Charles River CD (Sprague-Dawley), males, in feed, site: liver, lesion: one or several types, types not named, dosed 69 weeks, study length 69 weeks) negative
active: carcinogen call (dog, strain Beagle, females, given by capsule, site: liver, lesion: several types, types named in the paper, dosed 369 weeks, study length 370 weeks) positive | carcinogen call (dog, strain Beagle, females, given by capsule, site: urinary bladder, lesion: several types, types named in the paper, dosed 369 weeks, study length 370 weeks) positive | carcinogen call (mouse, strain ICR/Jcl, males, in feed, site: liver, lesion: hepatoma, dosed 52 weeks, study length 52 weeks) positive | TD50 (rat, strain Charles River CD (Sprague-Dawley), females, in feed, site: mammary gland, lesion: adenocarcinoma, dosed 69 weeks, study length 69 weeks) 18.3 mg/kg/day | TD50 (rat, strain Charles River CD (Sprague-Dawley), males, in feed, site: Zymbal's gland, lesion: squamous-cell carcinoma, dosed 69 weeks, study length 69 weeks) 60.1 mg/kg/day | TD50 (rat, strain Charles River CD (Sprague-Dawley), males, in feed, site: all sites, lesion: granulocytic leukemia, dosed 69 weeks, study length 69 weeks) 66.2 mg/kg/day | TD50 (rat, strain Charles River CD (Sprague-Dawley), males, in feed, site: mammary gland, lesion: adenocarcinoma, dosed 69 weeks, study length 69 weeks) 69.6 mg/kg/day

CC=CC(=O)Oc1c(C(C)CCCCCC)cc([N+](=O)[O-])cc1[N+](=O)[O-] (stereo not drawn)
inactive: carcinogen call (mouse, strain B6AKF1, females, oral dosing, site: any site (literature study), lesion: several types, types named in the paper, dosed 76 weeks, study length 76 weeks) negative | carcinogen call (mouse, strain B6AKF1, females, oral dosing, site: liver, lesion: hepatoma, dosed 76 weeks, study length 76 weeks) negative | carcinogen call (mouse, strain B6AKF1, females, oral dosing, site: lung, lesion: adenoma, dosed 76 weeks, study length 76 weeks) negative | TD50 (mouse, strain B6AKF1, males, oral dosing, site: any site (literature study), lesion: several types, types named in the paper, dosed 76 weeks, study length 76 weeks) 11.9 mg/kg/day | TD50 (mouse, strain B6AKF1, males, oral dosing, site: liver, lesion: hepatoma, dosed 76 weeks, study length 76 weeks) 2.07 mg/kg/day | TD50 (mouse, strain B6AKF1, males, oral dosing, site: lung, lesion: adenoma, dosed 76 weeks, study length 76 weeks) 19.1 mg/kg/day | TD50 (mouse, strain B6C3F1, females, oral dosing, site: any site (literature study), lesion: several types, types named in the paper, dosed 76 weeks, study length 76 weeks) 1.21 mg/kg/day | TD50 (mouse, strain B6C3F1, females, oral dosing, site: liver, lesion: hepatoma, dosed 76 weeks, study length 76 weeks) 2.5 mg/kg/day | carcinogen call (mouse, strain B6C3F1, females, oral dosing, site: lung, lesion: several types, types named in the paper, dosed 76 weeks, study length 76 weeks) negative | TD50 (mouse, strain B6C3F1, males, oral dosing, site: any site (literature study), lesion: several types, types named in the paper, dosed 76 weeks, study length 76 weeks) 0.405 mg/kg/day | TD50 (mouse, strain B6C3F1, males, oral dosing, site: liver, lesion: hepatoma, dosed 76 weeks, study length 76 weeks) 2.32 mg/kg/day | carcinogen call (mouse, strain B6C3F1, males, oral dosing, site: lung, lesion: several types, types named in the paper, dosed 76 weeks, study length 76 weeks) negative

NNC(N)=S
3.07 mg/kg/day: TD50 (rat, strain Charles River CD (Sprague-Dawley), females, in feed, site: mammary gland, lesion: one or several types, types not named, dosed 78 weeks, study length 104 weeks)
inactive: carcinogen call (mouse, strain Swiss albino, females, in drinking water, site: liver, lesion: hepatoma, dosed 123 weeks, study length 124 weeks) negative | carcinogen call (mouse, strain Swiss albino, females, in drinking water, site: lung, lesion: one or several types, types not named, dosed 123 weeks, study length 124 weeks) negative | carcinogen call (mouse, strain Swiss albino, males, in drinking water, site: liver, lesion: hepatoma, dosed 115 weeks, study length 121 weeks) negative | carcinogen call (mouse, strain Swiss albino, males, in drinking water, site: lung, lesion: one or several types, types not named, dosed 115 weeks, study length 121 weeks) negative

CN(C)c1ccc(C(=N)c2ccc(N(C)C)cc2)cc1
active: TD50 (mouse, strain CBA, females, in feed, site: liver, lesion: hepatoma, dosed 52 weeks, study length 99 weeks) 67.7 mg/kg/day | TD50 (mouse, strain CBA, males, in feed, site: liver, lesion: hepatoma, dosed 52 weeks, study length 79 weeks) 77.5 mg/kg/day | TD50 (mouse, strain albino, females, in feed, site: liver, lesion: hepatoma, dosed 52 weeks, study length 79 weeks) 94.3 mg/kg/day | TD50 (mouse, strain albino, males, in feed, site: liver, lesion: hepatoma, dosed 52 weeks, study length 84 weeks) 39.2 mg/kg/day | TD50 (rat, strain Wilmslow Wistar, males, in feed, site: liver, lesion: hepatoma, dosed 87 weeks, study length 125 weeks) 11 mg/kg/day

Source: PubChem BioAssay AID1745844 (Carcinogenic Potency Database (CPDB), 2022)
